Source: US5084564A, “Production of oligosaccharide fractions having antithrombotic properties by controlled chemical depolymerization of heparin” (Bioiberica, S.A., priority 1988, dated 1992)

Conditions: rat, in vivo, sc

bioavailability: 48-60%
Substance: heparin
